Source: paper PMC6002064, “Validated UPLC-MS/MS method for the quantification of dasatinib in plasma: Application to pharmacokinetic interaction studies with nutraceuticals in Wistar rats” (PLoS ONE, 2018)
One block for each compound: values may come before it.

Legend:
[1] = Stability of DAS solutions; assay type: physicochemical
[2] = Stability of DAS in rat plasma QC samples; assay type: in vitro ADME; conditions: DAS solutions, 4°C, n = 6, read-out: Mean recovery (%) ±RSD, refrigerator stability
[3] = Stability of DAS in rat plasma QC samples; assay type: in vitro ADME
Procedure: QC samples spiked at two concentration levels of DAS, low (3 ng/mL) and high (450 ng/mL), were analyzed (n = 6) in order to assess the drug stability in plasma. Stability testing were performed by exposing the QC plasma samples to different conditions, namely auto-sampler stability (extracted samples left in the auto-sampler at 10°C for 56 h before injection), short-term (bench-top) stability (samples left at room temperature (25 °C) for 6 h), and long-term stability (samples left at -30°C for 30 days). Moreover, freeze-thaw stability was assessed as follows, plasma samples were frozen at around -30°C and then thawed at room temperature for three cycles. For each sample, DAS concentrations were related to the nominal concentrations to calculate the % recovery.

[4] = Pharmacokinetic interaction study of oral DAS with nutraceuticals in acetic acid-induced UC Wistar rats (UPLC-MS/MS of plasma); assay type: in vivo; conditions: DAS 25 mg/kg oral
Procedure: Calibration standards, QC samples, as well as blank plasma samples were centrifugated at 6000 rpm for 5 min. Following the separation of the methanolic supernatants, the residues of individual samples were separately washed with 0.5 mL volumes of methanol. The combined supernatant and washing of each sample were cleaned-up by passing onto STRATA® C 18-E (200 mg, 3 mL) SPE cartridges, previously preconditioned with 3.0 mL methanol followed by 3.0 mL ultrapure water. The retained drugs were eluted from each sample using separate volumes of 0.5 mL methanol. Following the evaporation of the eluted methanolic solutions to dryness under nitrogen, the residue was reconstituted in 0.5 mL acetonitrile. Finally, UPLC–MS/MS analysis of the reconstituted samples was performed by injecting 5 μL volumes of each sample under the operating conditions.
Wistar healthy male rats weighing 250 ± 30 g were provided by the animal house, Women Student-Medical studies & Sciences Sections, College of Pharmacy, King Saud University, Riyadh, Saudi Arabia. The rats were placed in cages kept in a well-ventilated room and subjected to a regular 12 h day–night cycle at a relative humidity of 40–60% and average temperature of 24–27°C. All the rats could access the water freely while diet was prohibited for 12 h before drug administration. The rats were acclimatized for 7 days to laboratory conditions before conducting the experiment. Seven groups of five rats each were involved in the study. For all rats, UC was induced by oral daily administration of 1 mL volumes of 5% glacial acetic acid in water for three successive days. DAS suspension was prepared by triturating 125 mg of DAS with 5 mL aqueous methyl cellulose (0.5%, w/v) to prepare DAS suspension of 25 mg/mL, given to all groups with the exception of group V where olive oil was used for the suspension preparation. Curcumin preparations (50 mg/mL) were prepared by suspending the content of one capsule of either Curcumin 95 500 mg or Super Bio-Curcumin 400 mg in 10 mL or 8 mL volumes of water, respectively. By analogy, a suspension of 50 mg/mL olive leaf extract was prepared by suspending the content of one capsule into 10 mL water. However, for cocoa preparations, 450 mg cocoa extract/ 5 mL, aqueous suspensions of either CocoaVia® capsules or CocoaVia® unsweetened dark chocolate powder were prepared by suspending the content of one capsule or 2 g powder, respectively in water. Separate volumes (0.25 mL) of DAS suspension were orally administered to all treated animals using a gavage needle so that all rats received DAS dose of 25 mg/kg. For the purpose of comparison, rats of group I were only treated with DAS. Rats of groups II and III, curcumin groups, were first separately given an oral dose of […] of either Super Bio-Curcumin, curcumin I (rat group II) or Curcumin 95, curcumin II (rat group III). Then 30 min following curcumin administration, DAS suspension was given to the rats in a dose of 25 mg/kg. Rats of groups IV and V, the olive oil groups, were administered olive oil as follows; rats of group IV were separately given an oral dose of olive leaf extract, olive oil I, 50 mg/kg 30 min prior to DAS administration (25 mg/kg), while rats of groups V were separately given an oral dose of DAS suspended in olive oil, olive oil II (25 mg/kg). Finally, rats of groups VI and VII, cocoa groups, were initially given an oral dose of CocoaVia® capsules, cocoa I, 90 mg/kg (rat group VI), or CocoaVia® unsweetened dark chocolate, cocoa II, 90 mg/kg (rat group VII) 30 min before DAS dosing of 25 mg/kg. For each group, volumes of 0.3 mL blood samples were withdrawn from the retro-orbital sinus of each rat into heparinized tubes. Blood samples were collected at different time intervals; 0 (prior to dosing), 0.5, 1, 2, 3, 5, 6, and 24 h following DAS administration. All collected blood samples were centrifuged immediately at 4,500 rpm (30 min, 4°C).

[5] = parameters: method as in PMID 28640225; conditions: rats; cited from earlier work
[6] = male, Wistar, rat, DAS in plasma, n = 5, mean±SD

- stability of DAS solutions ([1]; room temperature for 6 h): stable
- stability of DAS solutions ([1]; up to 3 months at the refrigerator (4°C)): stable
- recovery at 3 months, 3 ng/mL ([2]; 3 ng/mL): 99.9%
- recovery at 3 months, 450 ng/mL ([2]; 450 ng/mL): 98.1%
- recovery at 56 h, 3 ng/mL ([3]; extracted rat plasma QC samples, 10°C, 56 h, extracted samples, 3 ng/mL in rat plasma, n = 6, read-out: Mean recovery (%) ±RSD, auto-sampler stability): 97.3%
- recovery at 56 h, 450 ng/mL ([3]; extracted rat plasma QC samples, 10°C, 56 h, extracted samples, 450 ng/mL in rat plasma, n = 6, read-out: Mean recovery (%) ±RSD, auto-sampler stability): 98.5%
- recovery at 6 h, 3 ng/mL ([3]; rat plasma QC samples, 25°C, 6 h, 3 ng/mL in rat plasma, n = 6, read-out: Mean recovery (%) ±RSD, short-term stability): 96.1%
- recovery at 6 h, 450 ng/mL ([3]; rat plasma QC samples, 25°C, 6 h, 450 ng/mL in rat plasma, n = 6, read-out: Mean recovery (%) ±RSD, short-term stability): 97.2%
- recovery at 3 freeze-thaw cycles, 3 ng/mL ([3]; rat plasma QC samples, -30°C, 3 cycles, 3 ng/mL in rat plasma, n = 6, read-out: Mean recovery (%) ±RSD, freeze-thaw stability): 101%
- recovery at 3 freeze-thaw cycles, 450 ng/mL ([3]; rat plasma QC samples, -30°C, 3 cycles, 450 ng/mL in rat plasma, n = 6, read-out: Mean recovery (%) ±RSD, freeze-thaw stability): 99.5%
- recovery at 30 days, 3 ng/mL ([3]; rat plasma QC samples, -30°C, 30 days, 3 ng/mL in rat plasma, n = 6, read-out: Mean recovery (%) ±RSD, long-term stability): 97.9%
- recovery at 30 days, 450 ng/mL ([3]; rat plasma QC samples, -30°C, 30 days, 450 ng/mL in rat plasma, n = 6, read-out: Mean recovery (%) ±RSD, long-term stability): 97.3%
- recovery ([3]; rat, rat plasma QC samples, all handling and storage conditions of Table 6, 3 and 450 ng/mL in plasma, read-out: recovery values in stability studies): ≥ 96.1%
- CL ([4]; DAS, n = 5, mean±SD): 153 ± 66.8 mL/min/kg
- Vd ([4]; DAS, n = 5, mean±SD): 238.12 ± 44.22 L/kg
- AUC(0-inf) [4, 6]: 2660 ± 596 ng·h/mL
- AUC(0-t) [4, 6]: 1640 ± 681 ng·h/mL
- Tmax [4, 6]: 0.51 ± 0.08 h
- Cmax ([4]; male, Wistar, rat, DAS in plasma, n = 5, mean±SD, nutraceutical given orally 30 min before DAS (olive oil II: DAS suspended in it)): 230 ± 31 ng/mL
- MRT last ([4]; male, Wistar, rat, DAS in plasma, n = 5, mean±SD, read-out: MRT0-t): 8.6 ± 0.88 h
- MRT inf ([4]; male, Wistar, rat, DAS in plasma, n = 5, mean±SD, read-out: MRT0-∞): 24.4 ± 4.29 h
- half-life ([4]; male, Wistar, rat, DAS in plasma, n = 5, mean±SD, read-out: t½ (converted)): 17.9 ± 2.15 h
- concentration at 0 h ([4]; male, Wistar, rat, plasma, time 0 h (prior to dosing), read-out: Conc*10 (ng/mL plasma), average DAS plasma concentration): 28.6 ng/mL
- concentration at 0.5 h ([4]; male, Wistar, rat, plasma, time 0.5 h, read-out: Conc*10 (ng/mL plasma), average DAS plasma concentration): 236 ng/mL
- concentration at 1 h ([4]; male, Wistar, rat, plasma, time 1 h, read-out: Conc*10 (ng/mL plasma), average DAS plasma concentration): 153 ng/mL
- concentration at 2 h ([4]; male, Wistar, rat, plasma, time 2 h, read-out: Conc*10 (ng/mL plasma), average DAS plasma concentration): 117 ng/mL
- concentration at 3 h ([4]; male, Wistar, rat, plasma, time 3 h, read-out: Conc*10 (ng/mL plasma), average DAS plasma concentration): 99.7 ng/mL
- concentration at 5 h ([4]; male, Wistar, rat, plasma, time 5 h, read-out: Conc*10 (ng/mL plasma), average DAS plasma concentration): 79.1 ng/mL
- concentration at 6 h ([4]; male, Wistar, rat, plasma, time 6 h, read-out: Conc*10 (ng/mL plasma), average DAS plasma concentration): 69.6 ng/mL
- concentration at 24 h ([4]; male, Wistar, rat, plasma, time 24 h, read-out: Conc*10 (ng/mL plasma), average DAS plasma concentration): 39.8 ng/mL
Compound: Cc1nc(Nc2ncc(C(=O)Nc3c(C)cccc3Cl)s2)cc(N2CCN(CCO)CC2)n1 [DAS, Dasatinib]

Compound: CC(=O)N1CCN(c2ccc(OCC3COC(Cn4ccnc4)(c4ccc(Cl)cc4Cl)O3)cc2)CC1 (stereo not shown) [ketoconazole]
- effect of co-administration on the PK of sorafenib [5]: did not cause a significant effect
